# Laboratory results as given in US20260216328A1, “DISRUPTABLE LINKER COMPOSITIONS, SWITCHABLE BISPECIFIC T CELL NANOENGAGER (SWITCH-BITE) COMPOSITIONS COMPRISING THE SAME, AND METHODS OF USE THEREOF” (The Trustees of the University of Pennsylvania, priority 2023, published 2026).
# Tests used:
# E0771-HER2 tumour = E0771-HER2 tumour model with HER2 expression in the liver (on-target, off-tumour toxicity)
# Protocol: FIG. 26A: mouse model with expression of human HER2 antigen in the liver was constructed using a piggyback transposon system delivered via lipid nanoparticles (LNPs) encapsulating two plasmids, pCMV-hyPBase and pPB7 TBG.human HER2.P2A.IRFP720, at day −30. At day 0, 10^6 E0771-HER2 tumour cells were injected s.c. into the right flank at day 0. […] FIGS. 26B-26D: mouse tumour growth curves, measurements of mouse body weight, and survival curves, respectively. n=8 mice. P value in FIG. 26D was determined using Log-rank (Mantel-Cox) test. […] FIGS. 26E-26K: measurements of markers for inflammation and toxicity including AST, ALT, TNF-α, IFN-γ, and IL-2 levels in mouse blood at different time points. n=3 mice. […] H&E staining was conducted to detect liver damage in different groups. Scale bar: […]. […] Blue: DAPI: Red, CD3^+ T cells. […] (n=5).
# T cell infiltration in the liver was measured using flow (FIG. 27A). FIG. 27B: liver T cells in different treatment groups at day 13. […] P values were indicated in FIGS. 27B-27C, analyzed by two-tailed unpaired Student's t-test. n=3.
# Recently, a mouse model was reported with stable human HER2 antigen expression in the mouse liver. […] Here, the construction of this mouse model was modified and two plasmids were delivered using a lipid nanoparticle (FIGS. 25A-25D). […] Next, a E0771-HER2 tumour model was constructed in mice with HER2 expression in the liver (FIG. 26A). […] The mice were then monitored for tumour growth, body weight, and survival (FIGS. 26B-26D).
# [1] = system: Raji-Luc-GFP tumour cells; conditions: AMD treatment group after SiTE
# Protocol: FIG. 42A: NSG-SGM3 mice were treated with Busulfan at day −50 to remove mouse bone marrow. At day −49, 10^5 human CD34^+ fetal liver cells were i.v. injected to let the mouse develop a human immune system. 10^6 Raji-Luc-GFP tumour cells were i.v. injected at day −14. At days 1, 3, and 5, PBS or SiTE was i.v. injected (in the PBS group, only PBS was injected to tumour-bearing mice). […] FIGS. 42B-42E: mouse body weight, temperature, IL-6 levels, and mouse survival curves, respectively. n=10 mice. The red stars in FIG. 42B indicate that mice were euthanized. FIG. 42F: measurements of IL-1 in mouse blood at different time points. n=10 mice. […] Brain H&E staining (FIG. 42I) and human CD68 immunohistochemistry (FIG. 42J) images of mice at day 35. The data in FIGS. 42B-42F were plotted as mean z s.d. (n=10) from three independent experiments.
# It was also evaluated if the SiTE can help control neurotoxicity. In the clinic, neurotoxicity is usually delayed and occurs several […] after CRS onset. Tumour-bearing mice were treated with SiTE at days 1, 3 and 5 (FIG. 42A). […] Rather than use a preventative strategy for treating CRS (FIGS. 40A-40M), here Tocilizumab was used to treat CRS when symptoms presented, so that it can be compared directly with the SiTE strategy. […] Studies have shown that IL-1 is the major cause of neurotoxicity.
# [2] = system: Raji-Luc-GFP tumour cells; test: Cytokine release syndrome in humanized NSG-SGM3 mice with Raji-Luc-GFP tumour; type: in vivo, mouse; conditions: 10 mg/kg AMD i.v., 24 h post-AMD
# Protocol: An in vivo imaging system (IVIS) was used to monitor tumour burden in vivo. […] FIGS. 41C-41E: Mouse body weight, temperature and survival curves, respectively. n=10 mice. […] The data in FIGS. 41C-41D and FIGS. 41F-41J were plotted as mean±s.d. (n=10) from three independent experiments. […] P value in FIG. 41E was determined using Log-rank (Mantel-Cox) test.
# SiTE and Blinatumomab were also compared with regard to treating symptoms of CRS and neurotoxicity. The humanized mouse model was constructed as before, but this time the piggybac transposon system was not used to express CD19 in the mouse livers. This allowed better analysis of the effects of the SiTE on CRS and neurotoxicity (FIG. 41A). Raji-Luc-GFP cells were i.v. injected at day −14. Blinatumomab, SiTE or PBS were i.v. injected to the mice at day one. Mouse tumour burden, body weight, temperature, and plasma cytokine levels were monitored (FIGS. 41B-41J).
smiles,measurement,setting,value
"NC12CC3CC(CC(C3)C1)C2 [AMD, adamantan-1-amine]",body weight,E0771-HER2 tumour; 100 μg AMD on day 13 after SiTE,gradual increases in body weight and recovered to a normal range
same,ALT and AST levels in blood,E0771-HER2 tumour; 24 h after AMD infusion following SiTE,returned to lower levels
same,T cells in liver tissue,E0771-HER2 tumour; AMD infusion after SiTE treatment,greatly decreased the number of T cells in liver tissue
same,animal survival,[1],prolonged animal survival
same,increased cytokine levels after AMD,[2],gradually recovered to within normal ranges
